The record followed here is EPA's ToxValDB 9.5 (doi:10.2903/j.efsa.2013.3270).

For one data set, the system named is Daphnia magna. The following applies: chronic/long-term; duration: 21 days; reproduction.
For the next data set, the system named is Apis mellifera. The following applies: acute, duration: 48 hours, mortality.
The next data set concerns Oncorhynchus mykiss. The following applies: acute; duration: 96 hours; mortality.
For another data set, the system named is Colinus virginianus. The following applies: acute, oral, mortality.
The subject of the next data set is Anas platyrhynchos. The following applies: chronic/long-term.
Another data set concerns Tagia sp. The following applies: acute; duration: 14 days; mortality.
Another data set concerns Pimephales promelas. The following applies: chronic/long-term; duration: 35 days; other.
In a further data set the test system is Folsomia candida. The following applies: chronic/long-term; duration: 28 days.
In another data set the test system is Typhlodromus pyri. Briefly: LR50; higher = less toxic. The following applies: not reported; mortality.
Another data set relates to Aphidius rhopalosiphi. Briefly: LR50; higher = less toxic. The following applies: not reported; mortality.

SMILES strings stand for the structures. Where only a bound is given, the exact number is not on record here.

In the case of `COC(=O)c1csc(C)c1S(=O)(=O)NC(=O)n1nc(OC)n(C)c1=O` [Thiencarbazone-methyl], the NOEC stood at 3.54 mg/L in the data set with Daphnia magna, 4.8 mg/L in the data set on Pimephales promelas and 1000 mg/kg in the data set with Folsomia candida. Also, the LD50 in the data set on Apis mellifera (dermal) was > 200 µg/piece; in the data set with Apis mellifera (oral, unspecified), > 199 µg/piece; in the data set on Rattus norvegicus (acute, oral, mortality), > 2000 mg/kg-day; in the data set on Colinus virginianus (diet), > 699 mg/kg-day; in the data set with Colinus virginianus, > 2000 mg/kg-day. For the same compound, the LC50 was > 104 µg/mL in the data set with Oncorhynchus mykiss and > 1000 mg/kg with Tagia sp.. Moreover, the NOEL in the data set on Rattus norvegicus (chronic) was found to be 946 mg/kg-day; in the data set on Anas platyrhynchos, 24 mg/kg-day. For the same compound, the no-observed-adverse-effect level (NOAEL) in the data set with Rattus norvegicus (chronic, duration: 2 years) turned out to be 22.8 mg/kg-day; in the data set on Rattus norvegicus (subchronic, duration: 90 days, oral), 24.7 mg/kg-day. Besides, the figures for the LR50 with Typhlodromus pyri and in the data set with Aphidius rhopalosiphi were > 0.45 g/ha and > 45 g/ha, respectively.
